Tests used:
[1] = system: tumor; settings: after intravenous injection; cited from earlier work
[2] = cited from earlier work
Description: To facilitate esterase-aided ^10BPA release following delivery to a tumor, we conjugated IF7C to ^10BPA via an ester bond with a propanolamine linker. Following analysis of 584 mg of IF7C(^10BPA)RR, we determined its purity to be 99.5% (Fig. S1A). By contrast, to design a conjugate to be internalized by tumor cells, we conjugated IF7K to ^10BSH directly through an uncleavable linker, N-(6-maleimidocaproyloxy) sulfosuccinimide (Sulfo-EMCS). We synthesized a total of 411 mg IF7K(^10BSH)RR, and determined its purity to be 98.8% (Fig. S1B).

[3] = system: MBT2 bladder tumor-bearing C3H/He mice; experiment: ^10B concentration in tumors and normal organs by prompt gamma-ray analysis; format: in vivo, mouse; settings: for Intratumoral ^10B concentration: IF7 conjugates 7 mg/kg, fructose-^10BPA 0.791 mg/kg, ^10BSH 0.868 mg/kg, MBT2 tumor; for Intratumoral ^10B concentration / ^10B tumor/blood (T/B) ratio: mean ± SD; for ^10B tumor/blood (T/B) ratio: same doses; for Tumor/blood (T/B) ratio, range: by 40 min after injection (range over 5-40 min); for Intratumoral concentration reached: ultralow dose 7 mg/kg iv, MBT2 tumor-bearing mice, discussion summary
Description: MBT2 cells (1 × 10^6 cells per mouse) plus 50 μl Matrigel (Corning Inc., NY, USA) were injected subcutaneously using a 27-gauge needle into the right thighs of 8-week-old female C3H/He mice under anesthesia with 2% isoflurane inhalation. The day of injection was defined as day 0. At 4 weeks after MBT2 cells injection, when MBT2 tumors were palpable, mice were randomly divided into four groups of 16 mice each and injected intravenously with: 1) fructose-^10BPA ((0.791 mg/kg), 2) IF7C(^10BPA)RR (7 mg/kg), 3) ^10BSH 0.868 mg/kg), or 4) IF7K(^10BSH)RR (7 mg/kg). Within 5, 10, 20, and 40 min of injection, four mice at each time point were sacrificed by cervical dislocation under anesthesia with 2% isoflurane inhalation. From each mouse, the tumor, brain, lung, heart, liver, kidney, bladder, stomach, intestine, spleen, skin, muscles, and blood were collected in a Teflon tube for ^10B measurement. ^10B concentrations in tissues were measured by prompt gamma-ray spectrometry using a thermal neutron guide tube installed at the Institute for Integrated Radiation and Nuclear Science, Kyoto University (KURNS).

[4] = system: human YTS-1 xenograft tumors; experiment: Immunohistochemistry of YTS-1 xenografts (HE, CD8α, CD31, Ki-67, Anxa1); format: in vivo; settings: 3 weeks after second BNCT; for Number of CD8-positive lymphocytes per tumor area / Ki-67 proliferation index: mean ± SD; for Anxa 1 expression vs untreated, compound-only and neutron-irradiated controls: IHC
Description: BNCT-treated YTS-1 tumors were collected as described above, fixed in 20% formalin solution and embedded in paraffin. Tissue sections 4 μm thick were mounted on silane-coated glass slides and air-dried for 1 h. Deparaffinized tissue sections underwent heat-induced epitope retrieval using a Histofine antigen retrieval reagent (pH 6.0) (Nichirei Biosciences Inc. Tokyo, Japan) and were then incubated with anti-human Ki-67 antigen (clone MIB-1, 1:2000 dilution) or mouse anti-Anxa1 monoclonal antibody (clone MC16, 1:100 dilution) in phosphate-buffered saline (PBS) containing 5% bovine serum albumin (BSA) at 4 °C overnight. Other sections were treated with heat-induced epitope retrieval with Histofine antigen retrieval reagent (pH 9.0) (Nichirei Biosciences Inc.) and then incubated with rabbit anti-mouse CD8α (antibody (EPR21769, 1:2000 dilution) or anti-mouse CD31 (EPR17259, 1:2000 dilution) in PBS containing 5% BSA at 4 °C overnight. The Envision/HRP rabbit mouse kit was used for antibody detection (Agilent Technologies Japan., Tokyo, Japan). Nuclear counterstaining was performed by incubating sections with hematoxylin solution (Agilent Technologies Japan) for 2 min at room temperature. Eosin alcohol solution (Fujifilm Wako Pure Chemical Corporation) was used to perform HE staining, according to the manufacturer’s instruction. Images (10× objective) were captured using a Keyence BZ-9000 fluorescence microscope (Keyence, Tokyo, Japan) and BZ-II analyzer Ver 2.2 (Keyence). The white balance was adjusted for each specimen.
Six complete and non-overlapping tumor regions of interest (ROI) were selected from each case and saved as .tif files. The number of diaminobenzidine (DAB)-stained nuclei was determined in the ROI using color deconvolution and the particle analysis plug-in of the Fiji platform (ImageJ distribution, http://fiji.sc/Fiji). The mean number of CD8-positive lymphocytes in all six fields was used for statistical analysis. The number of diaminobenzidine (DAB)-stained blood vessels was counted in a ROI using the color deconvolution plug-in of the Fiji platform (ImageJ distribution, http://fiji.sc/Fiji). The mean number of CD31-positive blood vessels in all six fields was used for statistical analysis.
As above, six complete and non-overlapping tumor regions of interest (ROI) were selected and saved as .tif files, and diaminobenzidine (DAB)- and hematoxylin-stained nuclei were counted. Ki-67-positive nuclei were included in the count, regardless of staining intensity, in line with recommendations of the International Ki-67 in Breast Cancer Working Group. The number of DAB-stained nuclei was divided by the sum of DAB- and hematoxylin-stained nuclei, and values were expressed as a percentage. The mean percentage of Ki-67-positive cells in all six field was used for statistical analysis.

[5] = system: murine MBT2 bladder tumor; experiment: Nuclear reactor-based BNCT of MBT2 bladder tumor-bearing mice; format: in vivo, mouse; settings: compound-mediated BNCT: 10 mg/kg iv 40 min before neutron irradiation (60 min, 1 MW); MBT2, n = 3; mean ± SD
Description: MBT2 cells were injected as described above into the right thighs of 8-week-old female C3H/He mice, and the day of injection defined as day 0. Four weeks later, when MBT2 tumors were palpable, mice were randomly divided into six groups of 3 mice each: 1) untreated control, 2) IF7C(^10BPA)RR, 3) IF7K(^10BSH)RR, 4) neutron-irradiated controls, 5) IF7C(^10BPA)RR-mediated BNCT, and 6) IF7K(^10BSH)RR-mediated BNCT. In Groups 4, 5, and 6, tumors in right thighs were subjected to neutron beam irradiation at the heavy water facility of KURNS Research Reactor for 60 min at a power of 1 MW. Each mouse was held within an acrylic holder during neutron irradiation, and a LiF plate (50 mm thick) was used to shield the body from thermal neutrons, while exposing the tumor. Neutron fluences were measured by radioactivation of gold foils (3 mm diameter; 0.05 mm thick) on surface of both sides of the tumors. Since thermal neutrons were rapidly attenuated in the tumor, the average thermal neutron fluences of both sides were adopted as the fluence irradiated to the tumors. In this study, tumors were irradiated by 1.9 × 10^12 thermal neutrons/cm^2. Thermoluminescent dosimeters for γ-ray dosimetry were attached to tumor surfaces. […] Tumor size was measured using calipers, and tumor volume (V) was calculated as: V = ab^2/2, where a and b are the major and minor axes, respectively. […]

[6] = system: human YTS-1 bladder tumor xenograft; experiment: Cyclotron accelerator-based BNCT of human YTS-1 xenograft mice; format: in vivo; settings: mean ± SD; for Tumor volume at 4 weeks after start of first BNCT: compound injection without neutron irradiation, YTS-1 xenograft, nude mice, n = 8; for Tumor volume at 4 weeks: compound-mediated BNCT, 20 mg/kg iv 40 min before irradiation, two treatments one week apart, YTS-1, n = 8
Description: YTS-1 cells (2 × 10^6 cells per mouse) plus 50 μl Matrigel (Corning Inc.) were injected subcutaneously using a 27-gauge needle into the right thighs of 8-week-old female BALB/c nu/nu mice under anesthesia with 2% isoflurane inhalation. The day of injection was defined as day 0. One week later, when YTS-1 xenografts were palpable, mice were randomly divided into six groups of 8 mice each: 1) untreated control, 2) […], 4) neutron-irradiated controls, 5) IF7C(^10BPA)RR-mediated BNCT, and 6) IF7K(^10BSH)RR-mediated BNCT. In Groups 4, 5, and 6, tumors in thighs were subjected to neutron beam irradiation at the cyclotron-typed accelerator (Sumitomo Heavy Industries Ltd.) in the Aomori Prefecture Quantum Science Center for 60 min at a power of […] at 20 MeV. Radiation of mice was performed as described above. The average of the γ-ray dose was 0.23 Gy. Groups 5 and 6, IF7C(^10BPA)RR or IF7K(^10BSH)RR was administered intravenously 40 min before irradiation at a dose of 20 mg/kg. One week after the first BNCT, the second was administered using both the same method and irradiation method. The tumor size and volume was calculated as above. Four weeks after the first BNCT, all mice were sacrificed by cervical dislocation under anesthesia with 2% isoflurane inhalation, and tumors were weighed and prepared for immunohistochemical analysis.

[7] = compound injection without neutron irradiation

Substance	Time for IF7 to target a tumor [1]	Solubility in aqueous solution [2]	Intratumoral ^10B concentration ([3]; 5 min after iv injection)	^10B tumor/blood (T/B) ratio ([3]; 5 min after iv injection)	Intratumoral ^10B concentration ([3]; 10 min after iv injection)	^10B tumor/blood (T/B) ratio ([3]; 10 min after iv injection)	Intratumoral ^10B concentration ([3]; 20 min after iv injection)	^10B tumor/blood (T/B) ratio ([3]; 20 min after iv injection)	Intratumoral ^10B concentration ([3]; 40 min after iv injection)	^10B tumor/blood (T/B) ratio ([3]; 40 min after iv injection)	Tumor/blood (T/B) ratio, range [3]	Intratumoral concentration reached [3]	Number of CD8-positive lymphocytes per tumor area [4, 7]	Histology (HE and CD8α staining) ([4]; compound-mediated BNCT)	Anxa 1 expression vs untreated, compound-only and neutron-irradiated controls ([4]; compound-mediated BNCT)	Ki-67 proliferation index ([4]; compound-mediated BNCT)	Number of CD8-positive lymphocytes per tumor area ([4]; compound-mediated BNCT)	Tumor volume 3 weeks after BNCT [5]	Tumor volume at 4 weeks after start of first BNCT [6]	Tumor volume at 4 weeks [6]
IFLLWQR [IF7]	9 min	poorly soluble	–	–	–	–	–	–	–	–	–	–	–	–	–	–	–	–	–	–
IFLLWQRC(EMCS-^10BPA)RR [IF7C(^10BPA)RR]	–	–	9.3 ± 6.9 ppm	3.48 ± 3.49	4.6 ± 0.8 ppm	2.41 ± 0.27	19.9 ± 20.4 ppm	13.54 ± 19.68	4.7 ± 0.5 ppm	2.15 ± 0.50	2.15–13.54	20 ppm	709 ± 328 n/mm^2	tissue necrosis with infiltration of CD8α-positive lymphocytes	significantly higher	10.82 ± 6.31%	4351 ± 1318 n/mm^2	2.90 ± 0.49 mm^3	965 ± 844 mm^3	123 ± 114 mm^3
IFLLWQRK(EMCS-^10BSH)RR [IF7K(^10BSH)RR]	–	–	17.8 ± 11.1 ppm	7.61 ± 8.81	27.0 ± 15.3 ppm	10.92 ± 9.89	16.2 ± 16.3 ppm	5.89 ± 3.57	15.4 ± 11.2 ppm	6.28 ± 7.45	5.89–10.92	25 ppm	860 ± 262 n/mm^2	tissue necrosis with infiltration of CD8α-positive lymphocytes	significantly higher	9.73 ± 8.39%	4498 ± 890 n/mm^2	3111 ± 1769 mm^3	1511 ± 921 mm^3	69 ± 79 mm^3
borocaptate sodium [^10BSH, reference compound]	–	–	1.6 ± 1.4 ppm	0.41 ± 0.72	7.5 ± 8.7 ppm	2.46 ± 2.28	17.1 ± 12.8 ppm	8.72 ± 4.98	1.7 ± 0.3 ppm	1.71 ± 1.14	0.41–8.72	–	–	–	–	–	–	–	–	–
p-Boronophenylalanine [^10BPA, reference compound]	–	–	2.5 ± 4.4 ppm	0.77 ± 1.33	2.6 ± 3.1 ppm	0.87 ± 0.88	0.0 ± 0.0 ppm	0.0 ± 0.0	5.4 ± 5.0 ppm	3.16 ± 3.35	0.00–3.16	–	–	–	–	–	–	–	–	–
